Our source for the Intrinsic activity and pKi values is ChEMBL document CHEMBL3879907, “8-azabicyclo[3.2.1]octane compounds as mu opioid receptor antagonists” (2014).

Molecules are shown by their SMILES.

Assay [1] has as its target Mu-type opioid receptor (Homo sapiens) (UniProt P35372). The experiment in a line: Intrinsic activity at human mu opioid receptor expressed in CHOK1 cell membranes at 0.00001 to 20 uM after 30 mins by GTP-Eu nucleotide exchange assay relative to DAMGO. In kind it is functional. Particulars: CHO-K1.
The target of assay [2] is Kappa-type opioid receptor (Cavia porcellus, UniProt P41144). The experiment in a line: Displacement of [3H]-diprenorphine from guinea pig kappa opioid receptor expressed in CHOK1 cell membranes. The note with it: cho-k1. A general note: In a radioligand displacement assay an active substance lowers the binding of a labelled ligand.
Assay [3] addresses Delta-type opioid receptor (Homo sapiens, UniProt P41143). Description: Displacement of [3H]-diprenorphine from human delta opioid receptor expressed in cell membranes.

As usually defined, the pKi is −log10 of the Ki, conventionally taken in molar units. Lower therefore signals a high Ki.

Sequence of Kappa-type opioid receptor (P41144 whole entry): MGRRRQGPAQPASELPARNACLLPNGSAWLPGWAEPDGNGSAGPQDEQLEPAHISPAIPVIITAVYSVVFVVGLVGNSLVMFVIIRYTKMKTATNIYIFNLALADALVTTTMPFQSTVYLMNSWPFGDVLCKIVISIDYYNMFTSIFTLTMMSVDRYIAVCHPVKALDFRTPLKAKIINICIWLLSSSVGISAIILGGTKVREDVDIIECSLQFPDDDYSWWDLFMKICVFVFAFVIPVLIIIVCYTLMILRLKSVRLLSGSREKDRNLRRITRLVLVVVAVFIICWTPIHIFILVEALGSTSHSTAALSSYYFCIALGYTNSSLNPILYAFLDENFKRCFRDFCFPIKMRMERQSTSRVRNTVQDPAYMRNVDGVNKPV
Sequence of Delta-type opioid receptor (P41143 whole entry): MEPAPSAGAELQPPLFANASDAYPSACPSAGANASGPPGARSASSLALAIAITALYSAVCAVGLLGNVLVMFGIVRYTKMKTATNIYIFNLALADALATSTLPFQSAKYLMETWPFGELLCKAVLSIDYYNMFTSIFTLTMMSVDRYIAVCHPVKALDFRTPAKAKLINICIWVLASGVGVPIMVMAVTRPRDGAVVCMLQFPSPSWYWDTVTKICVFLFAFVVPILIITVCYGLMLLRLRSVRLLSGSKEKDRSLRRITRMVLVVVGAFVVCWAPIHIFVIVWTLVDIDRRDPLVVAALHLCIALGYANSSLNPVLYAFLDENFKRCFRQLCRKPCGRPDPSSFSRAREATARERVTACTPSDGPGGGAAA
Sequence of Mu-type opioid receptor (Homo sapiens) (P35372 whole entry): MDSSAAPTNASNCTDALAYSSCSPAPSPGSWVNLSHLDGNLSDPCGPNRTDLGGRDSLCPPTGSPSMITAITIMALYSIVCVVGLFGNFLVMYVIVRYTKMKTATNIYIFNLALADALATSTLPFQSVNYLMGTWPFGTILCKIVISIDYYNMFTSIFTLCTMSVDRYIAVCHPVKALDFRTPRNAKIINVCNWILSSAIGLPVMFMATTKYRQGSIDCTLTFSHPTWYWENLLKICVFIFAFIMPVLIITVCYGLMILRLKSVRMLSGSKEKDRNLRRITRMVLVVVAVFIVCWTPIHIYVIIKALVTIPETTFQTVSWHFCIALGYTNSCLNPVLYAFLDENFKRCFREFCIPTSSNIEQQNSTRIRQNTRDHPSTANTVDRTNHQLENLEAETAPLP

`CN(C)CCCC(=O)N(CCN1[C@@H]2CC[C@H]1C[C@@H](c1cccc(C(N)=O)c1)C2)CC1CCCCC1`: the Intrinsic activity in assay [1] was under 40%. Also, the negative logarithm of the Ki (pKi) in assay [2] and in assay [3] was 7 to 10.5 in each case.

Molecule `O=C(O)C(O)CC(=O)N(CCN1[C@@H]2CC[C@H]1C[C@@H](c1cccc(O)c1)C2)Cc1cccc(F)c1` (some centres undefined) had an Intrinsic activity in assay [1] of under 40%.

On to `COC(=O)CCC(=O)N(CCN1[C@@H]2CC[C@H]1C[C@@H](c1cccc(O)c1)C2)CC1CCCCC1`, for which the Intrinsic activity in assay [1] was under 40%. In addition, the pKi in assay [2] and in assay [3] was 7 to 10.5 in each case.

Turning to `CC(C)C[C@H](O)C(=O)N(CCN1[C@@H]2CC[C@H]1C[C@@H](c1cccc(C(N)=O)c1)C2)Cc1c(F)cccc1F.O=C(O)C(F)(F)F`, in assay [1], the Intrinsic activity was under 40%. The pKi in assay [2] and in assay [3] was 7 to 10.5 throughout.

For the molecule `O=C(O)CC(=O)N(CCN1[C@@H]2CC[C@H]1C[C@@H](c1cccc(O)c1)C2)Cc1c(F)cccc1F`, the Intrinsic activity in assay [1] is under 40%. The pKi in assay [2] and in assay [3] was 7 to 10.5 in each case.

As to `NC(=O)c1cccc([C@H]2C[C@H]3CC[C@@H](C2)N3CCN(CCCc2ccccc2)C(=O)CO)c1`, the Intrinsic activity in assay [1] was under 40%. Also, the pKi in assay [2] and in assay [3] was 7 to 10.5 each time.

In the case of `NC(=O)c1cccc([C@H]2C[C@H]3CC[C@@H](C2)N3CCN(CC2CCCC2)C(=O)[C@H](O)CO)c1.O=C(O)C(F)(F)F`, in assay [1], the Intrinsic activity is under 40%. Besides, the pKi in assay [2] and in assay [3] was 7 to 10.5 each time.

Molecule `NC(=O)c1cccc([C@H]2C[C@H]3CC[C@@H](C2)N3CCN(CC2CCCC2)C(=O)[C@H]2CC[C@H](O)CC2)c1.O=C(O)C(F)(F)F` displayed an Intrinsic activity in assay [1] of under 40%. Also, the negative logarithm of the Ki (pKi) in assay [2] and in assay [3] was 7 to 10.5 in each case.

On to `NC(=O)c1cccc([C@H]2C[C@H]3CC[C@@H](C2)N3CCN(CCc2ccccc2)C(=O)[C@@H](O)CO)c1.O=C(O)C(F)(F)F`, for which the Intrinsic activity in assay [1] was under 40%. Moreover, the pKi in assay [2] and in assay [3] was 7 to 10.5 in each case.

In assay [1], `NC(=O)c1cccc([C@H]2C[C@H]3CC[C@@H](C2)N3CCCN(Cc2ccccc2)C(=O)CO)c1` came in with an Intrinsic activity of under 40%. In addition, the pKi in assay [2] and in assay [3] was 7 to 10.5 throughout.

In assay [1], `NC(=O)c1cccc([C@H]2C[C@H]3CC[C@@H](C2)N3CCN(Cc2ccc(F)cc2)C(=O)CO)c1.O=C(O)C(F)(F)F` showed an Intrinsic activity of under 40%. Further, the negative-log Ki (pKi) in assay [2] and in assay [3] was 7 to 10.5 each time.

`CC(C)(C)NCC[C@H](O)C(=O)N(CCN1[C@@H]2CC[C@H]1C[C@@H](c1cccc(C(N)=O)c1)C2)CC1CCCCC1`: in assay [1], the Intrinsic activity was under 40%.

In the case of `O=C(NCc1ccccc1)N(CCN1[C@@H]2CC[C@H]1C[C@@H](c1cccc(O)c1)C2)CC1CCCCC1`, the Intrinsic activity in assay [1] was under 40%. For the same molecule, the pKi in assay [2] and in assay [3] was 7 to 10.5 throughout.

The molecule `NC(=O)c1cccc([C@H]2C[C@H]3CC[C@@H](C2)N3CCN(CC2CCCC2)C(=O)CCO)c1.O=C(O)C(F)(F)F` came in with an Intrinsic activity in assay [1] of under 40%. In addition, the negative-log Ki (pKi) in assay [2] and in assay [3] was 7 to 10.5 in each case.

Turning to `NC(=O)c1cccc([C@H]2C[C@H]3CC[C@@H](C2)N3CCN(CC2CCCCC2)C(=O)C2(O)CC2)c1.O=C(O)C(F)(F)F`, in assay [1], the Intrinsic activity was under 40%. Besides, the pKi in assay [2] and in assay [3] was 7 to 10.5 each time.

The molecule `CS(=O)(=O)N(CCN1[C@@H]2CC[C@H]1C[C@@H](c1cccc(C(N)=O)c1)C2)Cc1ccccc1.O=C(O)C(F)(F)F` showed an Intrinsic activity in assay [1] of under 40%. The pKi in assay [2] and in assay [3] was 7 to 10.5 in each case.

Molecule `CCCCCNC(=O)N(CCN1[C@@H]2CC[C@H]1C[C@@H](c1cccc(C(N)=O)c1)C2)CC1CCCCC1` showed an Intrinsic activity in assay [1] of under 40%. The pKi in assay [2] and in assay [3] was 7 to 10.5 in each case.

`CC(C)(C)C(=O)N(CCN1[C@@H]2CC[C@H]1C[C@@H](c1cccc(C(N)=O)c1)C2)CC1CCCC1.O=C(O)C(F)(F)F` gave an Intrinsic activity in assay [1] of under 40%. For the same molecule, the negative logarithm of the Ki (pKi) in assay [2] and in assay [3] was 7 to 10.5 each time.

In assay [1], `C[C@H](O)C(=O)N(CCCN1[C@@H]2CC[C@H]1C[C@@H](c1cccc(C(N)=O)c1)C2)Cc1ccccc1` gave an Intrinsic activity of under 40%.

With `O=C(O)C1CCCCC1C(=O)N(CCN1[C@@H]2CC[C@H]1C[C@@H](c1cccc(O)c1)C2)CC1CCCCC1` (some centres undefined), the Intrinsic activity in assay [1] was under 40%.

In assay [1], `NC(=O)c1cccc([C@H]2C[C@H]3CC[C@@H](C2)N3CCN(CC2CCC(F)CC2)C(=O)[C@@H](O)CO)c1` (some centres undefined) displayed an Intrinsic activity of under 40%.

The molecule `CC1CCC(CN(CCN2[C@@H]3CC[C@H]2C[C@@H](c2cccc(C(N)=O)c2)C3)C(=O)[C@@H](O)CO)CC1` (some centres undefined) showed an Intrinsic activity in assay [1] of under 40%.

In assay [1], `CC(C)(C)C(=O)N(CCCN1[C@@H]2CC[C@H]1C[C@@H](c1cccc(C(N)=O)c1)C2)Cc1ccccc1` yielded an Intrinsic activity of under 40%.

With `NC(=O)c1cccc([C@H]2C[C@H]3CC[C@@H](C2)N3CCN(CC2CCC(C(F)(F)F)CC2)C(=O)CO)c1` (some centres undefined), in assay [1], the Intrinsic activity was under 40%.

`NC(=O)c1cccc([C@H]2C[C@H]3CC[C@@H](C2)N3CCN(C[C@H]2CC[C@H](O)CC2)C(=O)[C@@H](O)CO)c1` registered an Intrinsic activity in assay [1] of under 40%.

Regarding `O=C(O)c1cccc([C@H]2C[C@H]3CC[C@@H](C2)N3CCN(CC2CCCCC2)C(=O)[C@@H](O)CO)c1`, in assay [1], the Intrinsic activity is under 40%.

In assay [1], `NC(=O)c1cccc([C@H]2C[C@H]3CC[C@@H](C2)N3CCN(CC2CCC(F)(F)CC2)C(=O)[C@@H](O)CO)c1` gave an Intrinsic activity of under 40%.

Turning to `NC(=O)c1cccc([C@H]2C[C@H]3CC[C@@H](C2)N3CCN(C[C@H]2CC[C@@H](O)CC2)C(=O)[C@@H](O)CO)c1`, in assay [1], the Intrinsic activity was under 40%.

In assay [1], `NC(=O)c1cccc([C@H]2C[C@H]3CC[C@@H](C2)N3CCN(CC23CC4CC(CC(O)(C4)C2)C3)C(=O)[C@@H](O)CO)c1` yielded an Intrinsic activity of under 40%.

For the molecule `CC(O)C(=O)N(CCN1[C@@H]2CC[C@H]1C[C@@H](c1cccc(C(N)=O)c1)C2)Cc1ccccc1` (some centres undefined), the Intrinsic activity in assay [1] is under 40%.

Consider `CC(=O)N(CCN1[C@@H]2CC[C@H]1C[C@@H](c1cccc(O)c1)C2)CC12CC3CC(CC(C3)C1)C2`, for which, in assay [1], the Intrinsic activity is under 40%.

With `CN(C)CC(O)C(=O)N(CCN1[C@@H]2CC[C@H]1C[C@@H](c1cccc(C(N)=O)c1)C2)CC1CCCCC1` (some centres undefined), the Intrinsic activity in assay [1] is under 40%.

In assay [1], `CC(O)C(O)C(=O)N(CCCN1[C@@H]2CC[C@H]1C[C@@H](c1cccc(C(N)=O)c1)C2)Cc1ccccc1` (some centres undefined) registered an Intrinsic activity of under 40%.

Regarding `NC(=O)c1cccc([C@H]2C[C@H]3CC[C@@H](C2)N3CCN(CC2CCC(F)CC2)C(=O)CO)c1` (some centres undefined), in assay [1], the Intrinsic activity was under 40%.

In assay [1], `O=C(O)CCC(=O)N(CCN1[C@@H]2CC[C@H]1C[C@@H](c1cccc(O)c1)C2)CC12CC3CC(CC(C3)C1)C2` showed an Intrinsic activity of under 40%.

`NC(=O)c1cccc([C@H]2C[C@H]3CC[C@@H](C2)N3CCN(CC2CCC(C(F)(F)F)CC2)C(=O)[C@@H](O)CO)c1` (some centres undefined) showed an Intrinsic activity in assay [1] of under 40%.

In assay [1], `CCC(C)NC(=O)N(CCN1[C@@H]2CC[C@H]1C[C@@H](c1cccc(C(N)=O)c1)C2)CC1CCCCC1` (some centres undefined) displayed an Intrinsic activity of under 40%.

Regarding `NC(=O)c1cccc([C@H]2C[C@H]3CC[C@@H](C2)N3CCN(CC23CC4CC(CC(C4)C2)C3)C(=O)CCC(=O)O)c1`, the Intrinsic activity in assay [1] was under 40%.

For `CN(C)S(=O)(=O)N(CCN1[C@@H]2CC[C@H]1C[C@@H](c1cccc(C(N)=O)c1)C2)Cc1ccc(CF)cc1`, the Intrinsic activity in assay [1] is under 40%.

On to `COC(=O)CCC(=O)N(CCN1[C@@H]2CC[C@H]1C[C@@H](c1cccc(O)c1)C2)Cc1ccccc1`, for which the Intrinsic activity in assay [1] was under 40%.

As to `CS(=O)(=O)CC(=O)N(CCc1ccccc1)CCN1[C@@H]2CC[C@H]1C[C@@H](c1cccc(C(N)=O)c1)C2.O=C(O)C(F)(F)F`, the pKi in assay [2] and in assay [3] was 7 to 10.5 throughout.

Molecule `C[C@@H](O)[C@H](O)C(=O)N(CCN1[C@@H]2CC[C@H]1C[C@@H](c1cccc(C(N)=O)c1)C2)Cc1ccccc1` displayed an Intrinsic activity in assay [1] of under 40%.

On to `CC1CCC(CN(CCN2[C@@H]3CC[C@H]2C[C@@H](c2cccc(C(N)=O)c2)C3)C(=O)CS(C)(=O)=O)CC1` (some centres undefined), for which the Intrinsic activity in assay [1] was under 40%.

With `O=C(C(O)CCc1ccccc1)N(CCN1[C@@H]2CC[C@H]1C[C@@H](c1cccc(O)c1)C2)CC1CCCCC1` (some centres undefined), in assay [1], the Intrinsic activity was under 40%.

In turn, `CC(=O)N(CCN1[C@@H]2CC[C@H]1C[C@@H](c1cccc(C(N)=O)c1)C2)CC12CC3CC(CC(C3)C1)C2` gave an Intrinsic activity in assay [1] of under 40%.

In the case of `NC(=O)c1cccc([C@H]2C[C@H]3CC[C@@H](C2)N3CCN(CC23CC4CC(CC(C4)C2)C3)C(=O)CO)c1`, the Intrinsic activity in assay [1] is under 40%.

Regarding `CCC(C)NC(=O)N(CCN1[C@@H]2CC[C@H]1C[C@@H](c1cccc(O)c1)C2)CC1CCCCC1` (some centres undefined), the Intrinsic activity in assay [1] is under 40%.

`NC(=O)c1cccc([C@H]2C[C@H]3CC[C@@H](C2)N3CCN(CC23CC4CC(CC(O)(C4)C2)C3)C(=O)CO)c1` showed an Intrinsic activity in assay [1] of under 40%.

`NC(=O)c1cccc([C@H]2C[C@H]3CC[C@@H](C2)N3CCN(Cc2ccccc2)C(=O)[C@H](O)CO)c1` displayed an Intrinsic activity in assay [1] of under 40%.

In turn, `O=C(CO)N(CCN1[C@@H]2CC[C@H]1C[C@@H](c1cccc(O)c1)C2)Cc1ccc(Cl)cc1` gave an Intrinsic activity in assay [1] of under 40%.

For the molecule `O=C(CO)N(CCN1[C@@H]2CC[C@H]1C[C@@H](c1cccc(O)c1)C2)Cc1ccccc1`, the negative logarithm of the Ki (pKi) in assay [2] and in assay [3] was 7 to 10.5 in each case.

With `O=C(CCC1CCCC1)N(CCN1[C@@H]2CC[C@H]1C[C@@H](c1cccc(O)c1)C2)CC1CCCCC1`, in assay [1], the Intrinsic activity was under 40%.

For `O=C(CO)N(CCN1[C@@H]2CC[C@H]1C[C@@H](c1cccc(O)c1)C2)CC12CC3CC(CC(C3)C1)C2`, the Intrinsic activity in assay [1] is under 40%.

In assay [1], `O=C(N(CCN1[C@@H]2CC[C@H]1C[C@@H](c1cccc(O)c1)C2)CC1CCCCC1)C1(O)CC1` showed an Intrinsic activity of under 40%.

The molecule `CS(=O)(=O)CC(=O)N(CCN1[C@@H]2CC[C@H]1C[C@@H](c1cccc(C(N)=O)c1)C2)CC1CCC(C(F)(F)F)CC1` (some centres undefined) had an Intrinsic activity in assay [1] of under 40%.
